In patent publication US20230391845A1, “GLP-1, GIP AND GLUCAGON RECEPTOR TRIPLE AGONISTS” (priority 2020, published 2023):
*1 amine or outer side, *2 acyl side, *3 side chain or, on linkers, in order; H or OH if unused. Where a SMILES comes first, the peptide text is derived from it. Side-chain parts run from the residue outwards. [ ]: non-standard residue; d: D form. The star is where a group is joined. C20 diacid = O=C(O)CCCCCCCCCCCCCCCCCCC(=O)*; γGlu = O=C(O)[C@H](CCC(=O)[*:2])N[*:1]; εLys = N[C@@H](CCCCN[*:1])C(=O)[*:2]; Aib = CC(C)(N)C(=O)O

Assays:
human GIP receptor = target: T1, human GIP receptor (Homo sapiens, UniProt P48546); test: In vitro functional potency (CRE luciferase; whole cells), human GIPR; type: cell-based; conditions: BHK CRE luc2P hGIPR whole cells; Table 2; read-out: hGIPR CRE Luc EC50
T1 construct: expressed in transfected cells; host or cells: BHK cells (parent line BHKTS13) containing CRE luciferase
T1 sequence (P48546 22-466): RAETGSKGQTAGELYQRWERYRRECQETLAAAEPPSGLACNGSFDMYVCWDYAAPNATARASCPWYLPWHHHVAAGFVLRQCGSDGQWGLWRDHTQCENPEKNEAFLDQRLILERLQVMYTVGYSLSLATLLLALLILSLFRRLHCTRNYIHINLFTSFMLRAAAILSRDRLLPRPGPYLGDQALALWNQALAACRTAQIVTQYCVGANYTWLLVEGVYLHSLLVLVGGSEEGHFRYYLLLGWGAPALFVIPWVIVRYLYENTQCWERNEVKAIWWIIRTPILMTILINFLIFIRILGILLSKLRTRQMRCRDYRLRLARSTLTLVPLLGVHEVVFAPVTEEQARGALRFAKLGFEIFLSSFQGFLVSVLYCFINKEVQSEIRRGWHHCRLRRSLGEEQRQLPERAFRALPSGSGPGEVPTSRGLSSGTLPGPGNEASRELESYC
Experimental: (§1) The purpose of this example is to test the functional activity, or potency, of the compounds in vitro at the human and mouse GLP-1, GIP, and Gcg receptors. The in vitro functional potency is the measure of target receptor activation in a whole cell assay.
(§2) In vitro functional potency was determined by measuring the response of the target receptor in a reporter gene assay in individual cell lines. The assay was performed in stably transfected BHK cell lines that expresses one of the following G-protein coupled receptors: human GLP-1 receptor, human GIP receptor, human Gcg receptor, mouse GLP-1 receptor, mouse GIP receptor, or mouse Gcg receptor; and where each cell line contains the DNA for the cAMP response element (CRE) coupled to a promoter and the gene for firefly luciferase (CRE luciferase). When the respective receptor is activated, it results in the production of cAMP, which in turn results in expression of the luciferase protein. When assay incubation is completed, luciferase substrate (luciferin) is added resulting in the enzymatic conversion of luciferin to oxyluciferin and producing bioluminescence. The luminescence is measured as the readout for the assay.
(§3) The cells lines used in these assays were BHK cells with BHKTS13 as a parent cell line. The cell lines were derived from a clone containing the CRE luciferase element and were established by further transfection with the respective receptor to obtain the relevant cell line.
(§4) The cells were cultured at 37° C. with 5% CO2 in Cell Culture Medium. They were aliquoted and stored in liquid nitrogen. The cells were kept in continuous culture and were seeded out the day before each assay.
(§5) GLP-1R and GcgR Cell Culture Medium consisted of DMEM medium with 10% FBS, 500 µg/mL G418, and 300 µg/mL hygromycin. GIPR Cell Culture Medium consisted of DMEM medium with 10% FBS, 400 µg/mL G418, and 300 µg/mL hygromycin. Assay Buffer consisted of DMEM w/o phenol red, 10 mM Hepes, 1× Glutamax, 1% ovalbumin, and 0.1% Pluronic F-68.
(§6) • 1) Cells were plated at 5000 cells/well and incubated overnight in the assay plate. • 2) Cells were washed once in DPBS. • 3) Stocks of the test compounds and reference compounds in concentrations ranging from 100-300 pM were diluted 1:150 in Assay Buffer.
(§7) The data from the microtiter plate reader was first regressed in an Excel in order to calculate the x-axis, log scale concentrations based on the individual test compound's stock concentration and the dilutions of the assay. […] The software performs a non-linear regression (log(agonist) vs response). A minimum of two replicates was measured for each sample. The reported values are averages of the replicates.

human GLP-1 receptor = target: T2, human GLP-1 receptor (Homo sapiens, UniProt P43220); test: In vitro functional potency (CRE luciferase; whole cells), human GLP-1R; type: cell-based
T2 construct: expressed in transfected cells; host or cells: BHK cells (parent line BHKTS13) containing CRE luciferase
Experimental: as §1, §2, §3, §4, §5, §6, §7

[1] = Pharmacodynamic study in DIO mice, daily s.c. dosing over 13 days (body weight, food intake); type: in vivo, C57BL/6J male mice; conditions: for Absolute BW (grams) Day 0: Day 0 (baseline); for Cumulative food intake (grams) Day 13: mean ± SEM, n = 2
Experimental: The purpose of this example is to assess the in vivo effect of selected triple agonists on pharmacodynamic parameters in diet-induced obese (DIO) mice. The animals were treated once daily via subcutaneous injection with a liquid formulation of the triple agonist to be tested to assess effects on body weight, foot intake, and glucose tolerance.
C57BL/6J male mice were purchased from Jackson Laboratories at approximately 8 weeks of age. Mice were group housed and fed a high-fat, high-sugar diet from Research Diets (D12331). Mice were maintained on this diet for 12 weeks prior to initializing the pharmacology studies. Mice exceeding a measured body weight of 50 grams were considered diet-induced obese (DIO) and included in pharmacology studies. Mice were exposed to a controlled 12 h:12 h light:dark cycle at ambient room temperature (22° C.) with ab libitum access to food and water. Studies were approved by and performed according to the guidelines of the Institutional Animal Care and Use Committee of the University of Cincinnati.
All compounds in the study were formulated in the following buffer: 50 mM phosphate; 70 mM sodium chloride; 0.05% Tween-80, pH 7.4. Dosing solutions were formulated in glass vials and stored at 2-8° C. Dosing solutions were brought to room temperature before dosing and returned to 2-8° C. after dosing.
The animals were grouped to receive treatment as follows: Vehicle or GLP-1/GIP/Gcg receptor triple agonists as described herein, where vehicle is 50 mM phosphate, 70 mM sodium chloride; 0.05% (v/v) Tween-80, pH 7.4. The test compounds were dissolved in the vehicle, to stock concentrations of […], then diluted 50- to 200-fold in the vehicle to achieve the desired dosing solution concentrations. Animals were dosed subcutaneously once daily in the morning for each day of treatment with dosing solution at a volume of 2-5 μL per gram of body weight as necessary to achieve the desired dose (e.g. 0.3 nmol/kg, 1.0 nmol/kg, or 3.0 nmol/kg).
Body weight (BW) and food intake were measured immediately prior to dosing each day. The percent change in body was calculated individually for each mouse based on initial body weight prior to the first injection.

[2] = Pharmacokinetic study in minipigs, i.v. administration; set-up: species or system Göttingen minipigs; conditions: female, Göttingen, minipig, in vivo, iv; minipigs, i.v. administration, harmonic mean; read-out: Terminal half-life t1/2 (converted)
Experimental: The purpose of this example is to determine the half-life in vivo of the triple agonists as described herein after i.v. administration to minipigs, i.e. the prolongation of their time in the body and thereby their time of action. This is done in a pharmacokinetic (PK) study, where the terminal half-life of the triple agonist in question is determined. By terminal half-life is generally meant the period of time it takes to halve a certain plasma concentration, measured after the initial distribution phase.
Female Göttingen minipigs were obtained from Ellegaard Göttingen Minipigs (Dalmose, Denmark) approximately 7-14 months of age and weighing from approximately 16-35 kg were used in the studies. The minipigs were housed individually and fed restrictedly once daily with SDS minipig diet (Special Diets Services, Essex, UK).
After at 3 weeks of acclimatisation two permanent central venous catheters were implanted in vena cava caudalis in each animal. The animals were allowed 1 week recovery after the surgery, and were then used for repeated pharmacokinetic studies with a suitable wash-out period between successive dosings.
The animals were fasted for approximately 18 hours before dosing and from 0 to 4 hours after dosing, but had adlibitum access to water during the whole period.
Intravenous injections (the volume corresponding to usually 1.5-2 nmol/kg, for example 0.1 mL/kg) of the triple agonists were given through one catheter, and blood was sampled at predefined time points for up to 14 days post dosing (preferably through the other catheter). Blood samples (for example 0.8 mL) were collected in 8 mM EDTA buffer and then centrifuged at 4° C. and 1942 g for 10 minutes.
Plasma was pipetted into Micronic tubes on dry ice and kept at −20° C. until analysed for plasma concentration of the triple agonists using ELISA, or a similar antibody-based assay, or LCMS. Individual plasma concentration-time profiles were analysed by a non-compartmental model in Phoenix WinNonLin ver. 6.4. (Pharsight Inc., Mountain View, CA, USA), and the resulting terminal half-lives (harmonic mean) determined.

[3] = daily s.c. dosing over 13 days, compared to vehicle

T2 sequence (P43220 24-463): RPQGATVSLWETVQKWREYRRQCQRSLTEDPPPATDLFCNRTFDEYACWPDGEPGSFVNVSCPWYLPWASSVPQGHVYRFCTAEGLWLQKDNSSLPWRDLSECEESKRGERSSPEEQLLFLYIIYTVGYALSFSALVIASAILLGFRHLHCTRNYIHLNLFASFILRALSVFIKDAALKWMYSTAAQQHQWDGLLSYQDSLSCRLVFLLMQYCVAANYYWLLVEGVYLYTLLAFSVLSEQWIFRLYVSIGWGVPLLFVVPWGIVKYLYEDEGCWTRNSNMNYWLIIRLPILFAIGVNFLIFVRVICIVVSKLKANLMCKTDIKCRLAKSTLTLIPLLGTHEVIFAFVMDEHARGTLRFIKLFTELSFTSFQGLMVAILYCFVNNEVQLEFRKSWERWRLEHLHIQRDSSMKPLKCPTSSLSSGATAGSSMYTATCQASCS

CC[C@H](C)[C@H](NC(=O)[C@H](CO)NC(=O)[C@H](Cc1ccc(O)cc1)NC(=O)[C@H](CC(=O)O)NC(=O)[C@H](CO)NC(=O)[C@@H](NC(=O)[C@H](Cc1ccccc1)NC(=O)[C@@H](NC(=O)CNC(=O)[C@H](Cc1c[nH]cn1)NC(=O)C(C)(C)NC(=O)[C@@H](N)Cc1ccc(O)cc1)[C@@H](C)O)[C@@H](C)O)C(=O)N[C@@H](Cc1ccc(O)cc1)C(=O)N[C@@H](CC(C)C)C(=O)N[C@@H](CCC(=O)O)C(=O)N[C@@H](CCCCNC(=O)[C@@H](N)CCCCNC(=O)[C@@H](N)CCCCNC(=O)CC[C@H](NC(=O)CCCCCCCCCCCCCCCCCCC(=O)O)C(=O)O)C(=O)N[C@@H](CCC(N)=O)C(=O)N[C@@H](C)C(=O)N[C@@H](C)C(=O)NC(C)(C)C(=O)N[C@@H](CCC(=O)O)C(=O)N[C@@H](Cc1ccccc1)C(=O)N[C@H](C(=O)N[C@@H](CCC(N)=O)C(=O)N[C@@H](Cc1c[nH]c2ccccc12)C(=O)N[C@@H](CC(C)C)C(=O)N[C@@H](CC(C)C)C(=O)N[C@@H](CCC(=O)O)C(=O)NCC(=O)NCC(=O)N1CCC[C@H]1C(=O)N[C@@H](CO)C(=O)N[C@@H](CO)C(=O)NCC(=O)N[C@@H](C)C(=O)N1CCC[C@H]1C(=O)N1CCC[C@H]1C(=O)N1CCC[C@H]1C(=O)N[C@@H](CO)C(N)=O)C(C)C [Compound No. 18] (H-Y[Aib]HGTFTSDYSIYLEK([εLys-εLys-γGlu-C20 diacid])QAA[Aib]EFVQWLLEGGPSSGAPPPS-NH2)
EC50 (human GIP receptor): 7.1 pM

CC[C@H](C)[C@H](NC(=O)[C@H](CO)NC(=O)[C@H](Cc1ccc(O)cc1)NC(=O)[C@H](CC(=O)O)NC(=O)[C@H](CO)NC(=O)[C@@H](NC(=O)[C@H](Cc1ccccc1)NC(=O)[C@@H](NC(=O)CNC(=O)[C@H](Cc1c[nH]cn1)NC(=O)C(C)(C)NC(=O)[C@@H](N)Cc1c[nH]cn1)[C@@H](C)O)[C@@H](C)O)C(=O)N[C@@H](Cc1ccc(O)cc1)C(=O)N[C@@H](CC(C)C)C(=O)N[C@@H](CC(=O)O)C(=O)N[C@@H](CCCCNC(=O)[C@@H](N)CCCCNC(=O)[C@@H](N)CCCCNC(=O)CC[C@H](NC(=O)CCCCCCCCCCCCCCCCCCC(=O)O)C(=O)O)C(=O)N[C@@H](CCC(N)=O)C(=O)N[C@@H](C)C(=O)N[C@@H](C)C(=O)NC(C)(C)C(=O)N[C@@H](CCC(=O)O)C(=O)N[C@@H](Cc1ccccc1)C(=O)N[C@H](C(=O)N[C@@H](CCC(N)=O)C(=O)N[C@@H](Cc1c[nH]c2ccccc12)C(=O)N[C@@H](CC(C)C)C(=O)N[C@@H](CC(C)C)C(=O)N[C@@H](CCC(=O)O)C(=O)NCC(=O)NCC(=O)N1CCC[C@H]1C(=O)N[C@@H](CO)C(=O)N[C@@H](CO)C(=O)NCC(=O)N[C@@H](C)C(=O)N1CCC[C@H]1C(=O)N1CCC[C@H]1C(=O)N1CCC[C@H]1C(=O)N[C@@H](CO)C(N)=O)C(C)C [Compound No. 28] (H-H[Aib]HGTFTSDYSIYLDK([εLys-εLys-γGlu-C20 diacid])QAA[Aib]EFVQWLLEGGPSSGAPPPS-NH2)
EC50 (human GIP receptor): 7.7 pM

CC(C)C[C@H](NC(=O)[C@H](CC(C)C)NC(=O)[C@H](Cc1c[nH]c2ccccc12)NC(=O)[C@H](CCC(N)=O)NC(=O)[C@@H](NC(=O)[C@H](Cc1ccccc1)NC(=O)[C@H](CCC(=O)O)NC(=O)C(C)(C)NC(=O)[C@H](C)NC(=O)[C@H](Cc1ccc(O)cc1)NC(=O)[C@H](CCC(N)=O)NC(=O)[C@H](CCCCNC(=O)[C@@H](N)CCCCNC(=O)[C@@H](N)CCCCNC(=O)CC[C@H](NC(=O)CCCCCCCCCCCCCCCCCCC(=O)O)C(=O)O)NC(=O)[C@H](CCC(=O)O)NC(=O)[C@H](CC(C)C)NC(=O)[C@H](Cc1ccc(O)cc1)NC(=O)[C@H](Cc1ccc(O)cc1)NC(=O)[C@H](CO)NC(=O)[C@H](Cc1ccc(O)cc1)NC(=O)[C@H](CC(=O)O)NC(=O)[C@H](CO)NC(=O)[C@@H](NC(=O)[C@H](Cc1ccccc1)NC(=O)[C@@H](NC(=O)CNC(=O)[C@H](Cc1c[nH]cn1)NC(=O)C(C)(C)NC(=O)[C@@H](N)Cc1c[nH]cn1)[C@@H](C)O)[C@@H](C)O)C(C)C)C(=O)N[C@@H](CCC(=O)O)C(=O)NCC(=O)NCC(=O)N1CCC[C@H]1C(=O)N[C@@H](CO)C(=O)N[C@@H](CO)C(=O)NCC(=O)N[C@@H](C)C(=O)N1CCC[C@H]1C(=O)N1CCC[C@H]1C(=O)N1CCC[C@H]1C(=O)N[C@@H](CO)C(N)=O [Compound No. 29] (H-H[Aib]HGTFTSDYSYYLEK([εLys-εLys-γGlu-C20 diacid])QYA[Aib]EFVQWLLEGGPSSGAPPPS-NH2)
EC50 (human GIP receptor): 7.2 pM

CC[C@H](C)[C@H](NC(=O)[C@H](CO)NC(=O)[C@H](Cc1ccc(O)cc1)NC(=O)[C@H](CC(=O)O)NC(=O)[C@H](CO)NC(=O)[C@@H](NC(=O)[C@H](Cc1ccccc1)NC(=O)[C@@H](NC(=O)CNC(=O)[C@H](Cc1c[nH]cn1)NC(=O)C(C)(C)NC(=O)[C@@H](N)Cc1c[nH]cn1)[C@@H](C)O)[C@@H](C)O)C(=O)N[C@@H](CC(C)C)C(=O)N[C@@H](CC(C)C)C(=O)N[C@@H](CCC(=O)O)C(=O)N[C@@H](CCCCNC(=O)[C@@H](N)CCCCNC(=O)[C@@H](N)CCCCNC(=O)CC[C@H](NC(=O)CCCCCCCCCCCCCCCCCCC(=O)O)C(=O)O)C(=O)N[C@@H](CCC(N)=O)C(=O)N[C@@H](C)C(=O)N[C@@H](C)C(=O)NC(C)(C)C(=O)N[C@@H](CCC(=O)O)C(=O)N[C@@H](Cc1ccccc1)C(=O)N[C@H](C(=O)N[C@@H](CCC(N)=O)C(=O)N[C@@H](Cc1c[nH]c2ccccc12)C(=O)N[C@@H](CC(C)C)C(=O)N[C@@H](CC(C)C)C(=O)N[C@@H](CCC(=O)O)C(=O)NCC(=O)NCC(=O)N1CCC[C@H]1C(=O)N[C@@H](CO)C(=O)N[C@@H](CO)C(=O)NCC(=O)N[C@@H](C)C(=O)N1CCC[C@H]1C(=O)N1CCC[C@H]1C(=O)N1CCC[C@H]1C(=O)N[C@@H](CO)C(N)=O)C(C)C [Compound No. 43] (H-H[Aib]HGTFTSDYSILLEK([εLys-εLys-γGlu-C20 diacid])QAA[Aib]EFVQWLLEGGPSSGAPPPS-NH2)
EC50 (human GLP-1 receptor): 3 pM
Absolute BW (grams) Day 0 ([1]; 1.0 nmol/kg group): 60.4 ± 1.0 grams
Absolute BW (grams) Day 13 ([1]; 1.0 nmol/kg s.c. once daily): 48.7 ± 1.4 grams
Change in BW (%) Day 13 ([1]; 1.0 nmol/kg s.c. once daily): −19.4 ± 1.5%
Cumulative food intake (grams) Day 13 ([1]; 1.0 nmol/kg s.c. once daily): 21.1 ± 3.3 grams
Absolute BW (grams) Day 0 ([1]; 3.0 nmol/kg group): 60.1 ± 1.9 grams
Absolute BW (grams) Day 13 ([1]; 3.0 nmol/kg s.c. once daily): 36.3 ± 1.0 grams
Change in BW (%) Day 13 ([1]; 3.0 nmol/kg s.c. once daily): −39.5 ± 1.3%
Cumulative food intake (grams) Day 13 ([1]; 3.0 nmol/kg s.c. once daily): 11.5 ± 2.4 grams
reduction in body weight (in words) [1, 3]: superior reduction
reduction in food intake (in words) [1, 3]: superior reduction
half-life [2]: 71 h
